Reference: article PMC3249170 (Cellular and Molecular Life Sciences: CMLS, 2011)

Molecular target: actomyosin-7a (acto•M7a) (Homo sapiens, UniProt Q13402)
Test: biochemical

Sequence of actomyosin-7a (acto•M7a) (Q13402 whole entry, looked up): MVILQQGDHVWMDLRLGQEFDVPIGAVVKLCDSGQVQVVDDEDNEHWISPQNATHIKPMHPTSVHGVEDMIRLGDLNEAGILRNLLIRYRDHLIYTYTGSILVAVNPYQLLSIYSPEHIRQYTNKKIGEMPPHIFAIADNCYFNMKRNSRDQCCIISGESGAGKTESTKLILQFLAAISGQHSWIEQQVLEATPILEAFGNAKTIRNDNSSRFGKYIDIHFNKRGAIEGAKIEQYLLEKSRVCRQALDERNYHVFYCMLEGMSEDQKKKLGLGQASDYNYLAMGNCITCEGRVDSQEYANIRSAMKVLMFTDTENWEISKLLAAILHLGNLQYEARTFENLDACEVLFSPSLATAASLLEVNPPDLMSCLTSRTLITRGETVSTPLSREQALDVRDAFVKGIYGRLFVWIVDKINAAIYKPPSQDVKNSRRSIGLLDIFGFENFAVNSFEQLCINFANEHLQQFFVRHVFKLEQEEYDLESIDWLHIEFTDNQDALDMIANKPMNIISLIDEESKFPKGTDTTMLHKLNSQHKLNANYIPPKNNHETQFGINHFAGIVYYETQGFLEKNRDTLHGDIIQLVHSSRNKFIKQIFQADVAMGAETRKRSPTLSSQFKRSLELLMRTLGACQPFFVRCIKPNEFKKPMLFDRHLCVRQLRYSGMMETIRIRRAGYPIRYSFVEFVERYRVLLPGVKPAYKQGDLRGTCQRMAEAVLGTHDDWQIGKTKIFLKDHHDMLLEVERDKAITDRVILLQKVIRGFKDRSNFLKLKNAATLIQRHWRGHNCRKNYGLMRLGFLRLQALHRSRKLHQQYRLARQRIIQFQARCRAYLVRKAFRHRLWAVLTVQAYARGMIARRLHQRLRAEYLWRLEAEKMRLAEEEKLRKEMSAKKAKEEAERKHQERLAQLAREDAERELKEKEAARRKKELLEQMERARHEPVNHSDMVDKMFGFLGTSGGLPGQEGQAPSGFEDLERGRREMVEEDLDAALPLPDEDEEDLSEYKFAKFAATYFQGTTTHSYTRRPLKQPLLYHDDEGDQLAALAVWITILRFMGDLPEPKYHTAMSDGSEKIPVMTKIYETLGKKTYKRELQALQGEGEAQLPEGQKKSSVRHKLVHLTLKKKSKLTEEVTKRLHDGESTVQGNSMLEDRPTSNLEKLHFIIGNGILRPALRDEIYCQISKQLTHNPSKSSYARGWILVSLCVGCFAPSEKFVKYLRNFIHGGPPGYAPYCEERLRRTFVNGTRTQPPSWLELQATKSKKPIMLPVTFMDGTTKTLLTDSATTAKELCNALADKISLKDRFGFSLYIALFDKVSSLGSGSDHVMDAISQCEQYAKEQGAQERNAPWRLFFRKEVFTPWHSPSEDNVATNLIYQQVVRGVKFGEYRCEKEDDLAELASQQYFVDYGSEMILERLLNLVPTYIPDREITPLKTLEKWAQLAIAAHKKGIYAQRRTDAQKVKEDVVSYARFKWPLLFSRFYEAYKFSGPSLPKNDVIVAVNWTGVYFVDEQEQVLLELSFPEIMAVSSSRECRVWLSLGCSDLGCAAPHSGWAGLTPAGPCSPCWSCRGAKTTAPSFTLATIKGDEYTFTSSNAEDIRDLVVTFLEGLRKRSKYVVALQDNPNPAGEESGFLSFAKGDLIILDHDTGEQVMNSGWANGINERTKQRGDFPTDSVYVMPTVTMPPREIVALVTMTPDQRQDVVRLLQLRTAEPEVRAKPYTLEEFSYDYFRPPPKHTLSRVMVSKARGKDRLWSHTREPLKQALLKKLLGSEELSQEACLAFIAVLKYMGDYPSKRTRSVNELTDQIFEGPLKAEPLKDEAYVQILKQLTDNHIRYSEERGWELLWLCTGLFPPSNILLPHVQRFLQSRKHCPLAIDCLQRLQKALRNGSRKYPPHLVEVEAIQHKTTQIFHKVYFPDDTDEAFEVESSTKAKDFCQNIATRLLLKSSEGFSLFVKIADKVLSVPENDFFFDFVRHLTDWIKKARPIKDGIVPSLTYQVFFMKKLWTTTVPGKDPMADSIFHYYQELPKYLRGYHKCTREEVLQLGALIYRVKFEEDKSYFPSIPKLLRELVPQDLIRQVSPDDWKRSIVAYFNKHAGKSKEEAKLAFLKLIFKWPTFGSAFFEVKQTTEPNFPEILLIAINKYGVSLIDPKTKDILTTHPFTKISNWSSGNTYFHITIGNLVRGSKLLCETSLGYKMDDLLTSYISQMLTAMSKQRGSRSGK

Nc1ncnc2c1ncn2[C@@H]1O[C@H](COP(=O)(O)OP(=O)(O)OP(=O)(O)O)[C@@H](O)[C@H]1O [ATP]
Kd: 681.2 ± 5.63 µM
